Legend:
zebrafish embryos/larvae = experiment: Quantification of metabolites E-CBZ and HPPH in pooled culture medium exposed to zebrafish embryos/larvae; format: in vivo, Danio rerio; settings: 250 µM CBZ
Procedure: The control and test mediums were also kept in the same incubator until the last time point of the experiment. The embryo media were renewed every 48 h, to avoid medium acidification and oxygen deprivation. At each medium change and at the last time point of the experiment (Figure 9), the media exposed to the embryos were pooled and kept at −80 °C for further use (n = 3).

[1] = Microsomal incubation with CBZ and PHE, supersomes (negative control); format: in vitro ADME; settings: data not shown
Procedure: Moreover, positive and negative controls were included: pooled human liver microsomes (Gibco™, HMMCPL–PL050B, Thermo Fisher Scientific) and Insect Cell Control Supersomes™ (lot number: PL050 C-B, 456201, Corning Incorporated, Corning, NY, USA), respectively. Based on Oziolor et al., microsomal reactions were initiated after adding the substrate solution at a concentration of 100 µM (see Supplementary Table S1) in a mixture of 100 mM K3PO4 buffer (Corning® Gentest™, NY, USA) of pH 7.4, 5% and 1% of NADPH regenerating system reagents A and B, respectively (Corning, Woburn, MA, USA) and 200 µg/mL of microsomal protein, for a total volume of 500 µL. The reactions were performed at 28.5 ± 0.3 °C until the time point of interest. […] The reactions were stopped at two time points (5 and 240 min) by sampling 40 µL, in duplicate, of the main microsomal reaction and mixed with 120 µL cold (4 °C) acetonitrile (ACN) (Merck, Darmstadt, Germany) already containing the internal standard (IS), LAMO. The samples were then centrifuged for 10 min at 10,000× g to precipitate the proteins, which were denatured in cold ACN.

## NC(=O)N1c2ccccc2C=Cc2ccccc21 [CBZ, carbamazepine]
Zebrafish embryos/larvae
  Increase of E-CBZ in culture medium between 96 and 120 hpf: six-fold

## O=C1NC(=O)C(c2ccccc2)(c2ccccc2)N1 [PHE, phenytoin]
[1]
  Decrease of parent compound after 240 min (pilot investigation): No decrease

Source: PMC8657848, “Developmental Toxicity and Biotransformation of Two Anti-Epileptics in Zebrafish Embryos and Early Larvae” (International Journal of Molecular Sciences, 2021)
